Source: publication PMC7730851, “Expression of Somatostatin Receptor Subtypes (SSTR-1–SSTR-5) in Pediatric Hematological and Oncological Disorders” (Molecules, 2020)
Entries after “also recorded” stand apart in the source; their conditions may differ. Read-outs that look alike come from different tables or passages of the source. Positions of bridges follow the written chain, without caps; N, C: chain ends. Non-standard residues stand in square brackets, D forms with d. Residues, ends and D or L forms follow the SMILES beside them.

What was measured:
SSTR-1 = settings: cited from earlier work
SSTR-3 = settings: cited from earlier work
SSTR-2 = settings: cited from earlier work
SSTR-5 = settings: cited from earlier work
[1] = target: somatostatin receptors (SSTR); assay: Ligand competition assay: binding of [125I]RC-160 to membrane homogenates of pediatric solid tumor samples (Scatchard / LIGAND-PC); set-up: species or system human
Procedure: (§1) Receptor binding affinities and concentrations of SSTRs in tumor membranes were also studied. […] Biochemical specifications and parameters crucial to characterize specific binding sites were also defined. […] Various peptides structurally related or unrelated to SST were used in these studies.
(§2) The radioiodinated derivatives of the RC-160 SST analogue were prepared by the chloramine-T method and purified by reverse phase high-performance liquid chromatography (RP-HPLC) as described previously. Somatostatin receptor-binding assays were performed as described previously with some minor modifications, using in vitro ligand competition assays based on the binding of [^125I] RC-160 as a radioligand to membrane fractions of the pediatric samples. This radioiodinated ligand has been well characterized and reported previously and has high affinity for SSTR-2 and SSTR-5 [4]. Tumor membrane homogenates were incubated as competitors with 50,000–70,000 cpm radioiodinated RC-160 and 10^−12–10^−6 M nonradioactive peptides. After incubation for 2 h, the binding reactions were stopped, and the bound ligand was separated and counted in a gamma counter. The LIGAND-PC computer curve-fitting software of Munson and Rodbard was used to determine the type of receptor binding, the dissociation constant (Kd), and the maximal binding capacity of SSTRs (Bmax). […] The final binding affinities were expressed as IC50 values. Protein concentration was determined by the method of Bradford using a Bio-Rad protein assay kit (Bio-Rad Laboratories, Inc.).

[2] = test system: somatostatin receptors (SSTR); assay: Displacement of [125I]RC-160 binding from membranes of human pediatric tumors by unlabeled peptides; settings: for displacement of [125I]RC-160 binding: membrane fractions of human rhabdomyosarcoma specimen, Figure 3; for inhibition/displacement of the binding of radioiodinated RC-160: pediatric tumor membranes, competitor 10^-12-10^-6 M, concentrations as high as 1 µM
Procedure: as §1
Displacement of [^125I] RC-160 as a radioligand by the unlabeled SST analogs as competitor was determined.
as §2

Which results are given for octreotide?
affinity to SSTR-1 (SSTR-1): lower binding affinity; affinity to SSTR-3 (SSTR-3): approximately similar affinity; affinity to SSTR-2 (SSTR-2): high affinity; also recorded: highest affinity; affinity to SSTR-5 (SSTR-5): high affinity; also recorded: approximately similar affinity

What does the source list for CC(C)[C@@H]1NC(=O)[C@H](CCCCN)NC(=O)[C@@H](Cc2c[nH]c3ccccc23)NC(=O)[C@H](Cc2ccc(O)cc2)NC(=O)[C@@H](NC(=O)[C@H](N)Cc2ccccc2)CSSC[C@@H](C(=O)N[C@@H](Cc2c[nH]c3ccccc23)C(N)=O)NC1=O [[125I]RC-160] (H-[dF]CY[dW]KVCW-NH2; disulfide 2-7)?
Kd ([1]; mean of seven receptor-positive pediatric tumor samples, read-out: mean dissociation constant (Kd)): 6 nM; Kd ([1]; patient 1, teratoma membranes, duplicates, read-out: SSTR Kd): 5.76 nM; Kd ([1]; patient 4, Hodgkin lymphoma membranes, duplicates, read-out: SSTR Kd): 8.01 nM; Kd ([1]; patient 5, rhabdomyosarcoma membranes, duplicates, read-out: SSTR Kd): 8.12 nM; Kd ([1]; patient 6, rhabdomyosarcoma membranes, duplicates, read-out: SSTR Kd): 4.31 nM; Kd ([1]; patient 7, hamartoma membranes, duplicates, read-out: SSTR Kd): 4.02 nM; Kd ([1]; range over seven receptor-positive pediatric tumor samples, read-out: dissociation constant (Kd), range): 4.02 to 8.12 nM; affinity for SSTR-2 (SSTR-2): high affinity; affinity for SSTR-5 (SSTR-5): high affinity

For “luteinizing hormone-releasing hormone (LHRH): unrelated peptide used as specificity control”, which “displacement of [125I]RC-160 binding” value [2] is on record?
Its value is “did not displace”.

What about the “inhibition/displacement of the binding of radioiodinated RC-160” value (“inhibition/displacement” for short) [2] of the same molecule?
The value was “none”.

For “growth hormone-releasing hormone (GHRH): unrelated peptide used as specificity control”, which “displacement of [125I]RC-160 binding” value [2] is on record?
Its value is “did not displace”.

And the “inhibition/displacement” value [2]?
The value was “none”.

With SST-14: somatostatin-14, native peptide as the molecule, how does the “inhibition/displacement” value [2] read?
Its value is “displaced completely”.

With pasireotide as the molecule, how does the “affinity to SSTR-1” value (SSTR-1) read?
The value was “possesses an affinity”.

And the “affinity to SSTR-3” value (SSTR-3)?
Its value is “possesses an affinity”.

And the “affinity to SSTR-5” value (SSTR-5)?
Its value is “possesses an affinity”.

Which “displacement of [125I]RC-160 binding” value [2] does the source give for “VIP: unrelated peptide used as specificity control (Figure 3)” here?
The value was “did not displace”.

For [Tyr4]bombesin, which “inhibition/displacement” value [2] is on record?
Its value is “none”.

Which “displacement of [125I]RC-160 binding” value [2] does the source give for bombesin here?
The value was “did not displace”.

For “insulin-like growth factor I: unrelated peptide used as specificity control”, which “inhibition/displacement” value [2] is on record?
Its value is “none”.
